Experimental data published in patent publication US4458076A, “3-(4-Piperidinyl)-1,2-benzisothiazoles” (Hoechst-Roussel Pharmaceuticals, priority 1983, dated 1984).
Read-outs that look alike come from different tables or passages of the source.

Key:
[1] = tested on: apomorphine-induced climbing; test: antipsychotic activity in the climbing mice assay (apomorphine-induced climbing); type: in vivo, CK-1 male mice; conditions: Mus musculus, ip, inhibition of climbing, compound intraperitoneally 30 minutes prior to apomorphine 1.5 mg/kg subcutaneously, readings at 10, 20 and 30 minutes, linear regression
Experimental: The subject CK-1 male mice (23-27 grams) are group-housed under standard laboratory conditions. The mice are individually placed in wire mesh stick cages (4"×4" by 10") and are allowed one hour for adaptation and exploration of the new environment.
For evaluation of climbing, 3 readings are taken at 10, 20 and 30 minutes after apomorphine administration according to the following scale: […]
Mice consistently climbing before the injection of apormorphine will be discarded.
With full-developed apomorphine climbing, the animals are hanging on to the cage walls, rather motionless, over longer periods of time. By contrast, climbs due to mere motor stimulation usually only last a few seconds.

[2] = tested on: phenyl-p-quinone writhing; test: analgetic activity in the phenyl-p-quinone writhing assay; type: in vivo; conditions: Mus musculus, sc; subcutaneous dose effecting an approximately 50% inhibition of writhing in mice
Text: 3-(4-piperidinyl)-1,2-benzisothiazoles of the present invention are useful as analgetics due to their ability to alleviate pain in mammals. […] Exptl. Biol Med., 95 729 (1957)]. Thus, for instance, the subcutaneous dose effecting an approximately 50% inhibition of writhing (ED50) in mice produced in this assay is as shown in Table 2.

Row | Structure (SMILES) | ED50 [1] | ED50 [2] | ED50 ([1]; read-out: ANT[…] (ED50 mg/kg))
1 | c1ccc2c(C3CCN(CC4CC4)CC3)nsc2c1 [3-{1-(cyclopropylmethyl)-4-piperidinyl}-1,2-benzisothiazole] | 5.8 mg/kg | 0.07 mg/kg | 
2 | Cc1[nH]c2ccccc2c1CCCN1CCC(c2nsc3ccccc23)CC1 [3-{3-[4-(1,2-benzisothiazol-3-yl)piperidinyl]propyl}-2-methyl indole] | 0.17 mg/kg |  | 
3 | CN1CCC(c2nsc3ccccc23)CC1 [3-(1-Methyl-4-piperidinyl)-1,2-benzisothiazole] |  | 0.73 mg/kg | 
4 | CCC(=O)O[C@](Cc1ccccc1)(c1ccccc1)[C@H](C)CN(C)C [propoxyphene, reference compound] |  | 3.9 mg/kg | 
5 | c1ccc2c(C3CCNCC3)nsc2c1 [3-(4-piperidinyl)-1,2-benzisothiazole] |  | 2.1 mg/kg | 
6 | Fc1ccc(C(CCCN2CCC(c3nsc4ccccc34)CC2)c2ccc(F)cc2)cc1 [3-{1-[4,4-bis-(4-Fluorophenyl)-1-butyl]-4-piperidinyl}-1,2-benzisothiazole] | 3.3 mg/kg |  | 
7 | CC(C)=CCN1CCC2(C)c3cc(O)ccc3CC1C2C (centres unmarked) [pentazocine, reference compound] |  | 1.3 mg/kg | 
8 | O=C(CCCN1CCC(O)(c2ccc(Cl)cc2)CC1)c1ccc(F)cc1 [haloperidol, reference compound] |  |  | 0.11 mg/kg
9 | O=c1[nH]c2ccccc2n1CCCN1CCC(c2nsc3ccccc23)CC1 [3-[1-(1,3-Dihydro-2-oxo-2H-benzimidazol-1-ylpropyl)-4-piperidinyl]-1,2-benzisothiazole] | 0.32 mg/kg |  | 
10 | c1ccc(CCN2CCC(c3nsc4ccccc34)CC2)cc1 [3-{1-[Phenethyl]-4-piperidinyl}-1,2-benzisothiazole] | 7 mg/kg | 0.2 mg/kg | 
11 | Fc1ccc2c(CCCN3CCC(c4nsc5ccccc45)CC3)noc2c1 [3-[1-(6-Fluoro-1,2-benzisoxazole-3-propyl)-4-piperidinyl]-1,2-benzisothiazole] | 0.17 mg/kg | 0.3 mg/kg | 
